In paper PMC11123979, “Discovery of Nine Dipeptidyl Peptidase-4 Inhibitors from Coptis chinensis Using Virtual Screening, Bioactivity Evaluation, and Binding Studies” (Molecules, 2024) one finds IC50, inhibition and Kd data, which are given here for nine compounds.

The term IC50 denotes the concentration that inhibits the measured activity by half. For orientation: inhibition means how much of the control response was suppressed. For orientation: Kd means the equilibrium constant for the complex coming apart.

The target in assay [1] is T1, DPP-4 (Homo sapiens, UniProt P27487).
T1 construct: purchased Cayman Chemical Company 700210
T1 sequence (P27487 whole entry): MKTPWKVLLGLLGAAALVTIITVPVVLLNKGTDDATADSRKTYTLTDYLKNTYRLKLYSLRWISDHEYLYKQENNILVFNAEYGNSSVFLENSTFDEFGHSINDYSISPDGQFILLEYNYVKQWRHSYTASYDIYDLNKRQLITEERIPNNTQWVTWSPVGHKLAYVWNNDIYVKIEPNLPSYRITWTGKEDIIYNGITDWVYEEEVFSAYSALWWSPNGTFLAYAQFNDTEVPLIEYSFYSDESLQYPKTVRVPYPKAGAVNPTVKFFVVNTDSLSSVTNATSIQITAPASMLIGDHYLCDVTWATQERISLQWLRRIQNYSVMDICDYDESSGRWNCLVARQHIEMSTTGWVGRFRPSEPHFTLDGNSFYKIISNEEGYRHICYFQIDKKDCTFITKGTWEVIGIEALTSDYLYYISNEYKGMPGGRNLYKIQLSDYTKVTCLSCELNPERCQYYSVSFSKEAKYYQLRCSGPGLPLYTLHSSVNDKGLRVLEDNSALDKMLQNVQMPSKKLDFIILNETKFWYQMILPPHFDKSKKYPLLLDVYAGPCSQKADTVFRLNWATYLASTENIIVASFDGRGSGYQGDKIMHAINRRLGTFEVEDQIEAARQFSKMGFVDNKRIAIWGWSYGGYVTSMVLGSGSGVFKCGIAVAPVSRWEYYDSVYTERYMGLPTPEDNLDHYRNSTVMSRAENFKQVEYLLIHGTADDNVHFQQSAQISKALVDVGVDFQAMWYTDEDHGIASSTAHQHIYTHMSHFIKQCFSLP
Kind of assay: DPP-4 inhibition assay (commercial DPP-4 inhibitor screening assay kit, fluorescence). It is filed as biochemical. The note with it: for IC50: dose-response curves, read-out: IC50 value of the DPP-4 inhibitory activity; for inhibition at 30 µM: read-out: DPP-4 inhibition (primary screening). How it is done: The DPP-4 inhibitory activity of 39 potential compounds obtained via virtual screening was tested using a commercial DPP-4 inhibitor screening assay kit (Item No. 700210, Cayman Chemical Company, Ann Arbor, MI, USA), and the kit’s instructions were followed exactly. The fluorescence intensity was measured at an excitation/emission wavelength of 360/460 nm using an EnVision Multilabel Reader (2104 PerkinElmer, Waltham, MA, USA). The possibility of false positives was eliminated by assessing the autofluorescence of each test compound. […] These compounds were prepared at a concentration of 30 μM in deionized water that contained 0.5% DMSO. […] The half-maximal inhibitory concentration (IC50) was determined using GraphPad Prism 9 software.

In assay [2] the target is T1, DPP-4. Kind of assay: SPR-based binding assay (BIAcore T200, DPP-4 immobilized on CM5 chip). To be noted: 'Affinity' module, 1:1, 25 °C, Tris-HCl pH 8.0. How it is done:
The binding affinity between DPP-4 and six alkaloids in Coptis chinensis was evaluated using the BIAcore T200 system (GE Healthcare, Uppsala, Sweden). All SPR-related materials were obtained from GE Healthcare, and DPP-4 (D3446) was purchased from Sigma-Aldrich Chemical Co. (St. Louis, MO, USA). The DPP-4 protein, dissolved in PBS at a concentration of 40 ng/μL, was immobilized onto the surface of a CM5 sensor chip using a standard amine-coupling procedure. The test compounds were prepared at varying concentrations in a solution of Tris-Hcl (pH 8.0) and injected over the surface of the chip at a rate of 30 μL·min^−1 and a temperature of 25 °C. A reference flow cell without the immobilization of DPP-4 served as a control for non-specific binding. […] The chip could be regenerated and reused multiple times after it was treated with glycine–HCl (10 mM; pH 2.0). The test compounds were evaluated using the single-cycle kinetics mode across a two-fold concentration series (1.17–100 µM). The equilibrium constant (KD) was calculated based on the 1:1 reaction ratio between the molecule and protein, using the ‘affinity” module in the Biacore T200 software.
(In general: Surface plasmon resonance follows binding to a sensor surface in real time, without labels.)

Read-outs that look alike come from different tables or passages of the source.

With `COc1cc2c(cc1OC)-c1cc3ccc4c(c3c[n+]1CC2)OCO4` [epiberberine], the IC50 at DPP-4 [1] amounted to 35.6 µM. Also, the inhibition at 30 µM on DPP-4 [1] (final concentration of 30 μM) was above 40%.

On to `COc1cc2c(cc1O)-c1cc3ccc(OC)c(OC)c3c[n+]1CC2` [columbamine], for which, at DPP-4 [2], the Kd is 8.11 µM. Moreover, the IC50 on DPP-4 [1] came to 3.44 µM. Also, the inhibition at 30 µM on DPP-4 [1] (final concentration of 30 μM) was above 40%.

The compound `COc1cc2c(cc1O)CC[n+]1cc3c4c(ccc3cc1-2)OCO4` [groenlandicine] came in with a Kd on DPP-4 [2] of 15 µM. Further, the concentration for half-maximal inhibition (IC50) at DPP-4 [1] was 13.4 µM. The inhibition at 30 µM on DPP-4 [1] (final concentration of 30 μM) was above 40%.

Consider `COc1ccc2cc3[n+](cc2c1O)CCc1cc2c(cc1-3)OCO2` [berberrubine], for which the Kd on DPP-4 [2] is 18.8 µM. Moreover, the IC50 at DPP-4 [1] was determined as 27.4 µM. Moreover, the inhibition at 30 µM on DPP-4 [1] (final concentration of 30 μM) was above 40%.

`COc1ccc2cc3[n+](cc2c1OC)CCc1cc2c(cc1-3)OCO2` [berberine] gave a Kd on DPP-4 [2] of 30 µM. Further, the IC50 at DPP-4 [1] came to 53.7 µM. Moreover, the inhibition at 30 µM at DPP-4 [1] (final concentration of 30 μM) was above 40%.

In turn, `c1c2c(cc3c1OCO3)-c1cc3ccc4c(c3c[n+]1CC2)OCO4` [coptisine] yielded a Kd on DPP-4 [2] of 13.8 µM. Further, the IC50 on DPP-4 [1] was 8.91 µM. The inhibition at 30 µM at DPP-4 [1] (final concentration of 30 μM) was above 40%.

`COc1cc2c(cc1O)CC[n+]1cc3c(OC)c(OC)ccc3cc1-2` [jatrorrhizine] yielded a Kd on DPP-4 [2] of 12.1 µM. On DPP-4 [1], the 50% inhibitory concentration (IC50) is 26.9 µM and the inhibition at 30 µM was above 40%.

For the compound `COc1ccc2cc3[n+](cc2c1OC)CCc1cc(O)c(O)cc1-3` [demethyleneberberine], the IC50 on DPP-4 [1] is 3.63 µM. Further, at DPP-4 [1] (final concentration of 30 μM), the inhibition at 30 µM is above 40%.

Take `COc1cc2c(cc1OC)-c1cc3ccc(OC)c(OC)c3c[n+]1CC2` [palmatine]: the IC50 at DPP-4 [1] was 49.8 µM. Besides, the inhibition at 30 µM at DPP-4 [1] (final concentration of 30 μM) was above 40%.
